According to patent US8139339B2, “Modulation of neuromuscular functions with ultrashort electrical pulses” (Old Dominion University Research Foundation, priority 2007, dated 2012):
Like-named read-outs stand apart in the source and are kept apart here.

What was measured:
[1] = test system: nsPEF-opened conductance pores; test: whole-cell patch clamp of membrane conductance/resistance after nsPEF exposure; assay type: cell-based; settings: for condition of nsPEF-exposed cells: added prior to exposure to 1 or 5 pulses
From the text: Patch clamp recording: Cells on a cover slip were transferred into a glass-bottomed chamber (Warner Instruments, Hamden, Conn.) mounted on a motorized stage (Prior Scientific Inc., Rockland, Mass.) of an IX71 FluoView™ 300 confocal laser scanning microscope. Recording pipettes were pulled from 1B150F-4 glass (World Precision Instruments, Sarasota, Fla.) to a tip resistance of 1.5-3 MOhm and moved into a position with a model 6500 hydraulic micromanipulator (Siskiyou, Grants Pass, Oreg.). Electrophysiology data were acquired using a Multiclamp 700B amplifier, Digidata 1322A A-D converter, and pCLAMP 10 software (Molecular Devices, Foster City, Calif.). The analog signal was low-pass filtered at 2 or 5 kHz, and digitized at “oversampling” rates of 10 to 50 kHz. The series resistance was not compensated. Typical values of the seal and access resistance were 4-15 GOhm and 4-10 MOhm, respectively, except for a solution pair HEPES/Cl. […] The data from these experiments were analyzed differently (see below).
As shown in the inventors preliminary experiments, nsPEF exposure could be damaging to the gigaohmic seal between the cell membrane and the glass pipette, thereby effectively destroying the patch-clamp recording configuration. […] The exposure of intact (rather than already “patched”) cells effectively removed any concerns about possible artifacts caused by the presence of the glass pipette during the exposure.
Once the whole-cell configuration was formed, the membrane resistance and capacitance (Rm and Cm) were measured using the Membrane Test utility of pClamp10 software. The holding level was set at −70 or −60 mV; 10- or 20-mV test pulses were applied at 30- to 100-Hz rates and averaged on-line (n=6-12). The membrane potential (MP) was measured by switching briefly from voltage to current clamp mode at I=0.
After Cm compensation, the holding membrane potential was set to −70 mV. In most experiments, the I-V relationship was obtained by applying voltage ramps, typically from −100 to +100 mV within 20-40 ms, and preceded by a brief step to −100 mV. Passive Gm was determined as the slope of the I-V curve by a best fit linear approximation through a region that contained no visible voltage-gated currents, usually from −80 to −50 mV. As one would expect, these Gm values correlated very closely with the inverse of Rm values measured using the Membrane Test. Erev was determined in a usual manner, as an intercept of the best fit line with abscissa.
Exposure to nsPEF and local E-field modeling: A Blumlein line pulse generator (Kolb, J. F., S. Kono, and K. H. Schoenbach. 2006. Nanosecond pulsed electric field generators for the study of subcellular effects. Bioelectromagnetics 27:172-187) produced nearly rectangular 60-ns pulses that were delivered to the selected cell by a pair of tungsten electrodes (0.125 mm electrode diameter, 0.31 mm gap between the electrodes). With a help of a micromanipulator, the electrodes were positioned 5-10 μm above the surface of the cover slip on the sides of the selected cell; the cell was in the middle of the gap between the electrodes, at a distance of about 50-100 μm from their tips.
To check if activation of endogenous NSCCs was responsible (at least in part) for observed nsPEF effects, an attempt was made by the inventors to modify these effects with ruthenium red and with lanthanide ions. It should be noted, however, that these substances are not truly specific and can affects various other channels and intracellular processes.
Ruthenium red was added to the bath solution of the K/Na pair (see Table 1) at 10, 50, or 200 μM prior to exposure to 1 or 5 pulses, and the whole-cell currents were recorded after the exposure in the usual manner.

hippocampal CA1 neurons = settings: cited from earlier work
liver cells = settings: oxidative stress-activated NSCCs; cited from earlier work

| Compound | effect on membrane conductance increase by nsPEF ([1]; 10 μM in bath of K/Na pair, added prior to exposure) | effect on control (sham-exposed) cells ([1]; 50 μM in bath of K/Na pair) | condition of nsPEF-exposed cells ([1]; 50 μM in bath of K/Na pair) | effect on control (sham-exposed) cells ([1]; 200 μM in bath of K/Na pair) | condition of nsPEF-exposed cells ([1]; 200 μM in bath of K/Na pair) | swelling and other deleterious effects of oxygen-glucose deprivation (hippocampal CA1 neurons; 1 μM) | number of necrotic cells (liver cells) | protective effect against nsPEF permeabilization ([1]; 0.2 mM, initial trials) | swelling and other deleterious effects of oxygen-glucose deprivation (hippocampal CA1 neurons; 100 μM) |
| --- | --- | --- | --- | --- | --- | --- | --- | --- | --- |
| N.N.N.N.N.N.N.N.N.N.N.N.N.N.[Cl-].[Cl-].[Cl-].[Cl-].[Cl-].[Cl-].[O-2].[O-2].[Ru+3].[Ru+3].[Ru+4] [ruthenium red] | neither enhanced nor inhibited | no apparent effect | worsened the condition of nsPEF-exposed cells | no apparent effect | worsened the condition of nsPEF-exposed cells | reduced swelling |  |  |  |
| [Cl][Gd]([Cl])[Cl] [Gd^3+, GdCl3] |  |  |  |  |  |  | sharply decreased | no protection | reduced swelling |
| [Cl][La]([Cl])[Cl] [La^3+, LaCl3] |  |  |  |  |  |  |  |  | reduced swelling |
